Source: patent US20040176349A1, “Antibacterial composition” (priority 2001, published 2004)
Where two headings read alike, the source gives them in different places.

Tests used:
E. faecalis 5659 (vanA) = test: Checkerboard microdilution MIC with PFOB, Table 2; type: cell-based; conditions: E. faecalis 5659 (vanA); for MIC of partner antibiotic in the presence of PFOB at 0.5 mg/L: PFOB 0.5 mg/L; for MIC of partner antibiotic in the presence of PFOB at 1 mg/L: PFOB 1 mg/L; for MIC of partner antibiotic in the presence of PFOB at 2 mg/L: PFOB 2 mg/L; for MIC of partner antibiotic in the presence of PFOB at 4 mg/L: PFOB 4 mg/L; for MIC of partner antibiotic in the presence of PFOB at 8 mg/L: PFOB 8 mg/L; for MIC of partner antibiotic in the presence of PFOB at 16 mg/L: PFOB 16 mg/L; for MIC of partner antibiotic in the presence of PFOB at 32 mg/L: PFOB 32 mg/L; for MIC: Enterococcus faecalis, partner antibiotic alone, read-out: MIC (alone) of Partner
Description: (§1) The aim of the study was to detect any synergy between PFOB and the other antibiotics. For the purposes of the study, synergy was defined in accordance with the FIC (fractional inhibitory concentration) index, as disclosed by Lorian (1991, In “Antibiotics in Laboratory Medicine” 3rd edition, Eds. Williams & Wilkins; esp. p 434-443). In essence, if the combination of test compounds gives at least a 4-fold reduction in the FIC value for each compound, then a synergy may be considered to exist (i.e. FIC of the combination <0.5=synergy; FIC 0.5-2.0=“indifference”; and FIC >2=antagonism).
(§2) In Table 2, results in the checkerboard indicating synergy are hatched, and specific optimum synergistic combinations are boxed.

E. faecalis ATCC 29212 = test: Checkerboard microdilution MIC with PFOB, Table 2; type: cell-based; conditions: E. faecalis ATCC 29212; for MIC of partner antibiotic in the presence of PFOB at 0.5 mg/L: PFOB 0.5 mg/L; for MIC of partner antibiotic in the presence of PFOB at 1 mg/L: PFOB 1 mg/L; for MIC of partner antibiotic in the presence of PFOB at 2 mg/L: PFOB 2 mg/L; for MIC of partner antibiotic in the presence of PFOB at 4 mg/L: PFOB 4 mg/L; for MIC of partner antibiotic in the presence of PFOB at 8 mg/L: PFOB 8 mg/L; for MIC of partner antibiotic in the presence of PFOB at 16 mg/L: PFOB 16 mg/L; for MIC of partner antibiotic in the presence of PFOB at 32 mg/L: PFOB 32 mg/L; for MIC: Enterococcus faecalis, ATCC29212, partner antibiotic alone, read-out: MIC (alone) of Partner; for Synergy FIC: FIC index of PFOB + labelled partner, <0.5 = synergy; for MIC of PFOB & Partner: Partner concentration: optimum synergistic combination with PFOB, second figure (partner)
Description: as §1, §2

E.faecalis 78097 (van B) = test: Checkerboard microdilution MIC with PFOB, Table 2; type: cell-based; conditions: E.faecalis 78097 (van B); for MIC of partner antibiotic in the presence of PFOB at 0.5 mg/L: PFOB 0.5 mg/L; for MIC of partner antibiotic in the presence of PFOB at 1 mg/L: PFOB 1 mg/L; for MIC of partner antibiotic in the presence of PFOB at 2 mg/L: PFOB 2 mg/L; for MIC of partner antibiotic in the presence of PFOB at 4 mg/L: PFOB 4 mg/L; for MIC of partner antibiotic in the presence of PFOB at 8 mg/L: PFOB 8 mg/L; for MIC of partner antibiotic in the presence of PFOB at 16 mg/L: PFOB 16 mg/L; for MIC of partner antibiotic in the presence of PFOB at 32 mg/L: PFOB 32 mg/L; for MIC: Enterococcus faecalis, partner antibiotic alone, read-out: MIC (alone) of Partner
Description: as §1, §2

E. faecalis ATCC 10541 = test: Checkerboard microdilution MIC with PFOB, Table 2; type: cell-based; conditions: E. faecalis ATCC 10541; for Synergy FIC: FIC index of PFOB + labelled partner, <0.5 = synergy; for MIC of partner antibiotic in the presence of PFOB at 0.5 mg/L: PFOB 0.5 mg/L; for MIC of partner antibiotic in the presence of PFOB at 1 mg/L: PFOB 1 mg/L; for MIC of partner antibiotic in the presence of PFOB at 2 mg/L: PFOB 2 mg/L; for MIC of partner antibiotic in the presence of PFOB at 16 mg/L: PFOB 16 mg/L; for MIC of partner antibiotic in the presence of PFOB at 32 mg/L: PFOB 32 mg/L; for MIC: Enterococcus faecalis, ATCC10541; for MIC of partner antibiotic in the presence of PFOB at 4 mg/L: PFOB 4 mg/L; for MIC of partner antibiotic in the presence of PFOB at 8 mg/L: PFOB 8 mg/L
Description: The aim of the study was to detect any synergy between PFOB and the other antibiotics. For the purposes of the study, synergy was defined in accordance with the FIC (fractional inhibitory concentration) index, as disclosed by Lorian (1991, In “Antibiotics in Laboratory Medicine” 3rd edition, Eds. Williams & Wilkins; esp. p 434-443).

enterococci = test: Checkerboard study, synergy summary of Example 2; type: cell-based, Enterococcus; conditions: in words
Description: as §1

[1] = partner antibiotic alone, read-out: MIC (alone) of Partner

SMILES | MIC of partner antibiotic in the presence of PFOB at 0.5 mg/L (E. faecalis 5659 (vanA)) [µg/mL] | MIC of partner antibiotic in the presence of PFOB at 1 mg/L (E. faecalis 5659 (vanA)) [µg/mL] | MIC of partner antibiotic in the presence of PFOB at 2 mg/L (E. faecalis 5659 (vanA)) [µg/mL] | MIC of partner antibiotic in the presence of PFOB at 4 mg/L (E. faecalis 5659 (vanA)) [µg/mL] | MIC of partner antibiotic in the presence of PFOB at 8 mg/L (E. faecalis 5659 (vanA)) [µg/mL] | MIC of partner antibiotic in the presence of PFOB at 32 mg/L (E. faecalis 5659 (vanA)) [µg/mL] | MIC (E. faecalis 5659 (vanA)) [µg/mL] | MIC of partner antibiotic in the presence of PFOB at 0.5 mg/L (E. faecalis ATCC 29212) [µg/mL] | MIC of partner antibiotic in the presence of PFOB at 1 mg/L (E. faecalis ATCC 29212) [µg/mL] | MIC of partner antibiotic in the presence of PFOB at 2 mg/L (E. faecalis ATCC 29212) [µg/mL] | MIC of partner antibiotic in the presence of PFOB at 4 mg/L (E. faecalis ATCC 29212) [µg/mL] | MIC of partner antibiotic in the presence of PFOB at 8 mg/L (E. faecalis ATCC 29212) [µg/mL] | MIC of partner antibiotic in the presence of PFOB at 16 mg/L (E. faecalis ATCC 29212) [µg/mL] | MIC of partner antibiotic in the presence of PFOB at 32 mg/L (E. faecalis ATCC 29212) [µg/mL] | MIC (E. faecalis ATCC 29212) [µg/mL] | MIC of partner antibiotic in the presence of PFOB at 0.5 mg/L (E.faecalis 78097 (van B)) [µg/mL] | MIC of partner antibiotic in the presence of PFOB at 1 mg/L (E.faecalis 78097 (van B)) [µg/mL] | MIC of partner antibiotic in the presence of PFOB at 2 mg/L (E.faecalis 78097 (van B)) [µg/mL] | MIC of partner antibiotic in the presence of PFOB at 4 mg/L (E.faecalis 78097 (van B)) [µg/mL] | MIC of partner antibiotic in the presence of PFOB at 8 mg/L (E.faecalis 78097 (van B)) [µg/mL] | also measured
CC1(C)S[C@@H]2[C@H](NC(=O)[C@H](N)c3ccccc3)C(=O)N2[C@H]1C(=O)O [Ampicillin, ampicillin] | 2 | 2 | 2 | 2 | 1 | 0.25 | 1 | 1 | 1 | 1 | 1 | 1 | 1 | <0.03 | 0.5 | 0.5 | 0.5 | 0.5 | 0.5 | 0.5 | MIC of partner antibiotic in the presence of PFOB at 16 mg/L (E. faecalis 5659 (vanA)): 1 µg/mL; MIC of partner antibiotic in the presence of PFOB at 16 mg/L (E.faecalis 78097 (van B)): 0.5 µg/mL; MIC of partner antibiotic in the presence of PFOB at 32 mg/L (E.faecalis 78097 (van B)): 0.5 µg/mL; MIC (E.faecalis 78097 (van B)): 1 µg/mL; Synergy FIC (E. faecalis ATCC 10541): 0.253; MIC of partner antibiotic in the presence of PFOB at 0.5 mg/L (E. faecalis ATCC 10541): 0.25 µg/mL; MIC of partner antibiotic in the presence of PFOB at 1 mg/L (E. faecalis ATCC 10541): 0.25 µg/mL; MIC of partner antibiotic in the presence of PFOB at 2 mg/L (E. faecalis ATCC 10541): 0.25 µg/mL; MIC of partner antibiotic in the presence of PFOB at 16 mg/L (E. faecalis ATCC 10541): 0.06 µg/mL; MIC of partner antibiotic in the presence of PFOB at 32 mg/L (E. faecalis ATCC 10541): <0.03 µg/mL; MIC (E. faecalis ATCC 10541; [1]): 1 µg/mL; synergy with PFOB (enterococci): less marked, but still significant, synergy
CO/N=C(\C(=O)N[C@@H]1C(=O)N2C(C(=O)O)=C(COC(N)=O)CS[C@H]12)c1ccco1 [Cefuroxime, cefuroxime] | >64 | >64 | >64 | >64 | >64 | 0.5 | > 64 | >64 | >64 | 32 | 8 | 4 | 1 | <0.06 | 32 | 64 | 8 | 8 | 8 | 4 | MIC of partner antibiotic in the presence of PFOB at 16 mg/L (E. faecalis 5659 (vanA)): >64 µg/mL; Synergy FIC (E. faecalis ATCC 29212): 0.156; MIC of PFOB & Partner: Partner concentration (E. faecalis ATCC 29212): 1 µg/mL; Synergy FIC (E.faecalis 78097 (van B); FIC index of PFOB + labelled partner, <0.5 = synergy): 0.07; MIC of partner antibiotic in the presence of PFOB at 16 mg/L (E.faecalis 78097 (van B)): 1 µg/mL; MIC of partner antibiotic in the presence of PFOB at 32 mg/L (E.faecalis 78097 (van B)): 0.5 µg/mL; MIC of PFOB & Partner: Partner concentration (E.faecalis 78097 (van B); optimum synergistic combination with PFOB, second figure (partner)): 8 µg/mL; MIC (E.faecalis 78097 (van B)): > 64 µg/mL; Synergy FIC (E. faecalis ATCC 10541): 0.067; MIC of partner antibiotic in the presence of PFOB at 0.5 mg/L (E. faecalis ATCC 10541): >64 µg/mL; MIC of partner antibiotic in the presence of PFOB at 1 mg/L (E. faecalis ATCC 10541): >64 µg/mL; MIC of partner antibiotic in the presence of PFOB at 2 mg/L (E. faecalis ATCC 10541): >64 µg/mL; MIC of partner antibiotic in the presence of PFOB at 4 mg/L (E. faecalis ATCC 10541): 8 µg/mL; MIC of partner antibiotic in the presence of PFOB at 8 mg/L (E. faecalis ATCC 10541): 0.5 µg/mL; MIC of partner antibiotic in the presence of PFOB at 16 mg/L (E. faecalis ATCC 10541): <0.06 µg/mL; MIC of partner antibiotic in the presence of PFOB at 32 mg/L (E. faecalis ATCC 10541): <0.06 µg/mL; MIC (E. faecalis ATCC 10541; optimum synergistic combination of PFOB with the labelled partner, first figure (PFOB), read-out: MIC of PFOB & Partner: PFOB concentration): 8 µg/mL; MIC (E. faecalis ATCC 10541; optimum synergistic combination with PFOB, second figure (partner), read-out: MIC of PFOB & Partner: Partner concentration): 0.5 µg/mL; MIC (E. faecalis ATCC 10541; [1]): > 64 µg/mL
C[C@@H](O)[C@H]1C(=O)N2C(C(=O)O)=C(SCCN=CN)C[C@H]12 [Imipenem, imipenem] | 1 | 1 | 1 | 1 | 1 | 0.25 | 0.25 | 0.5 | 0.5 | 0.5 | 0.25 | 0.125 | 0.125 | <0.03 | 0.5 | 1 | 1 | 1 | 1 | 1 | Synergy FIC (E. faecalis ATCC 29212): 0.375; MIC of PFOB & Partner: Partner concentration (E. faecalis ATCC 29212): 0.12 µg/mL; MIC of partner antibiotic in the presence of PFOB at 16 mg/L (E.faecalis 78097 (van B)): 1 µg/mL; MIC of partner antibiotic in the presence of PFOB at 32 mg/L (E.faecalis 78097 (van B)): 1 µg/mL; MIC (E.faecalis 78097 (van B)): 0.5 µg/mL; MIC of partner antibiotic in the presence of PFOB at 0.5 mg/L (E. faecalis ATCC 10541): 1 µg/mL; MIC of partner antibiotic in the presence of PFOB at 1 mg/L (E. faecalis ATCC 10541): 1 µg/mL; MIC of partner antibiotic in the presence of PFOB at 2 mg/L (E. faecalis ATCC 10541): 1 µg/mL; MIC of partner antibiotic in the presence of PFOB at 4 mg/L (E. faecalis ATCC 10541): 1 µg/mL; MIC of partner antibiotic in the presence of PFOB at 8 mg/L (E. faecalis ATCC 10541): 0.25 µg/mL; MIC of partner antibiotic in the presence of PFOB at 16 mg/L (E. faecalis ATCC 10541): 0.125 µg/mL; MIC of partner antibiotic in the presence of PFOB at 32 mg/L (E. faecalis ATCC 10541): <0.03 µg/mL; MIC (E. faecalis ATCC 10541; [1]): 1 µg/mL
